Experimental data as given in publication PMC3359361, “Antimalarial Activity and Mechanisms of Action of Two Novel 4-Aminoquinolines against Chloroquine-Resistant Parasites” (PLoS ONE, 2012).

Experiments:
[1] = tested on: monkey kidney cell line (BGM); assay: Cytotoxicity by MTT assay, BGM cells; format: cell-based
Experimental: (§1) The human hepatoma cell line (HepG2) was originally received from the New University of Lisbon, and the monkey kidney cell line (BGM) from the Federal University of Minas Gerais. […] For the in vitro tests, a confluent cell monolayer was trypsinized, washed with culture medium, distributed in a flat-bottomed 96-well plate (5×10^3 cells/well) and incubated for 18 h at 37°C to ensure cell adherence.
(§2) The cytotoxicity was evaluated with the MTT assay, 3-(4,5-Dimethylthiazol-2-yl)-2,5-diphenyltetrazolium bromide. Briefly, the HepG2 and BGM cell lines were incubated with 20 µL of the compounds at different concentrations (1000-1 µg/mL) for 24 h in a 5% CO2 and air atmosphere at 37°C. For the MTT assay, which evaluates mitochondrial viability, 20 µL of MTT solution (5 mg/mL) were added and the plates were incubated for a further 3 h. After incubation, the supernatant was carefully removed from the wells, followed by the addition of 100 µL DMSO with thorough mixing.
(§3) The neutral red assay was used to evaluate cell viability by the accumulation of dye in the viable cell lysosome. […] Cell viability was expressed as the percentage of control absorbance obtained in untreated cells after subtracting the absorbance of the appropriate background. Lastly, the minimum lethal dose for 50% of the cells (MLD50) was determined as previously described.

[2] = tested on: P. falciparum W2 clone (CQ-resistant and mefloquine-sensitive); assay: ELISA anti-HRPII assay, W2 clone; format: cell-based; conditions: Plasmodium falciparum
Excerpt: (§4) Human erythrocytes (A^+) and serum blood group A+ were kindly donated by Center of Hemotherapy and Hemathology of Minas Gerais (HEMOMINAS). Immediately before the tests, ring stage-parasites were synchronized in sorbitol. Synchronized parasites were stained with orange green in pre-dried coverslips then immediately examined under a fluorescent microscope. The suspension was adjusted for parasitemia and hematocrit as described below for each test. The infected red blood cells were distributed in a 96-well microtiter plate (Corning, Santa Clara, CA, EUA) at 180 µL/well, in which 20 µL of the test drugs and controls were previously diluted at different concentrations (400-0.625 ng/mL) in 0.005% DMSO (v/v) (Sigma, USA).
(§5) The [^3H]-hypoxanthine assay was performed at 1% parasitemia and 1% hematocrit and the level of isotope incorporation was read in a beta-counter (PerkinElmer, Waltham, MA, EUA). The anti-HRPII test was performed at 0.05% parasitemia and 1.5% hematocrit and the HRPII quantification was read at 450 nm in a spectrophotometer (SpectraMax340PC^384, Molecular Devices). […] Curve-fitting was performed using Origin 8.0 software (OriginLab Corporation, Northampton, MA, USA).

[3] = tested on: P. falciparum 3D7 strain (CQ-sensitive); assay: ELISA anti-HRPII assay, 3D7 strain; format: cell-based; conditions: Plasmodium falciparum
Excerpt: as §4, §5

P. berghei, NK65 strain = assay: Suppressive parasite growth test in P. berghei infected mice; format: in vivo; conditions: for Time of survival / Percent reduction of parasitemia, day 5 / Percent reduction of parasitemia, day 8 / Percent reduction of parasitemia, day 10: three consecutive days; for Percent reduction of parasitemia, day 5: day 5 post-infection; for Percent reduction of parasitemia, day 8: day 8 post-infection; for Percent reduction of parasitemia, day 10: day 10 post-infection
Experimental: A suppressive parasite growth test was used with P. berghei, NK65 strain (originally received from the New York University Medical School) infected mice as described previously with some modifications. Briefly, adult Swiss outbred mice (20±2 g weigh) were inoculated with 1×10^5 red blood cells infected with P. berghei, by intraperitoneal route. The infected mice were maintained together for at least 2 h and then divided randomly into groups of 3–5 animals per cage, which were subsequently treated with 25 and 50 mg/kg of each compound diluted in DMSO 3% (v/v) given daily by oral gavage for three consecutive days. […] Blood smears from mouse tails were prepared on days 5, 8 and 10 post-infection and then methanol-fixed, stained with Giemsa and examined microscopically.

[4] = tested on: P. falciparum 3D7 strain (CQ-sensitive); assay: 3H hypoxanthine incorporation, 3D7 strain; format: cell-based; conditions: Plasmodium falciparum
Excerpt: as §4, §5

[5] = tested on: human hepatoma cell line (HepG2); assay: Cytotoxicity by MTT assay, HepG2 cells; format: cell-based
Experimental: as §1, §2, §3

[6] = tested on: P. falciparum W2 clone (CQ-resistant and mefloquine-sensitive); assay: 3H hypoxanthine incorporation, W2 clone; format: cell-based; conditions: Plasmodium falciparum
Excerpt: as §4, §5

hemozoin formation = assay: Inhibition of hemozoin assay; format: biochemical; conditions: dose-dependent; p<0.05 vs drug-free controls; two experiments in triplicate
Experimental: The hemozoin inhibition assay was performed as described by Ncokazi et al., (2002) with some modifications. Briefly, 10.1 µL of the aminoquinoline derivatives at different concentrations (40-0.62 mg/mL) and 101.2 µL of the hematin stock solution (1.68 mM in 0.1 M NaOH) were combined in triplicate in a flat-bottomed 96-well plate. The solutions were further mixed and 58.7 µL of acetate solution (12.9 M, pH 5.0) then added to each well. After incubation at 60°C, 80 µL of 30% (v/v) pyridine solution in 20 mM HEPES, pH 7.5, were added at room temperature. The solids formed were resuspended and allowed to settle for 15 min at room temperature. Then, 38 µL of the supernatant were transferred to a new plate and diluted to 250 µL with a 30% (v/v) pyridine solution (20 mM HEPES, pH 7.5). The color reaction was read in a spectophometer at 405 nm and the results were expressed as the concentration of free heme in each well, which was calculated from the standard absorbance curve of a known hemin solution. CQ was used as a positive control and the cut off was determined by the amount of free heme in the drug-free control. Each compound was evaluated in two different experiments.

## NCCNCCNc1ccnc2cc(Cl)ccc12 [MAQ, N^1-(2-aminoethyl)-N^2-(7-chloroquinol-4-yl)ethane-1,2-diamine]
[1]; MDL50/IC50
  Selectivity index BGM: 384
[1]; monkey, 24 h
  MDL50 BGM: 100 ± 0.0 µM
[2]; W2, dose that inhibits 50% of blood parasites growth, three or four experiments, read-out: IC50 HRPII, W2 (CQ resistant)
  IC50: 0.26 ± 0.02 µM
[3]; 3D7, dose that inhibits 50% of blood parasites growth, three or four experiments, read-out: IC50 HRPII, 3D7 (CQ sensitive)
  IC50: 0.026 ± 0.002 µM
P. berghei, NK65 strain; 25 mg/kg
  Activity in vivo (class): active
P. berghei, NK65 strain; 25 mg/kg daily, oral gavage
  Time of survival: 24 ± 1 days
  Percent reduction of parasitemia, day 5: 91%
  Percent reduction of parasitemia, day 8: 61%
  Percent reduction of parasitemia, day 10: 70%
P. berghei, NK65 strain; 50 mg/kg daily, oral gavage
  Time of survival: 25 ± 1 days
  Percent reduction of parasitemia, day 5: 95%
  Percent reduction of parasitemia, day 8: 71%
  Percent reduction of parasitemia, day 10: 76%
P. berghei, NK65 strain; 50 mg/kg, days 5, 8 and 10 post-infection
  Activity in vivo (class): active
[4]; 3D7, dose that inhibits 50% of blood parasites growth, three or four experiments, read-out: IC50 Hypoxanthine, 3D7 (CQ sensitive)
  IC50: 0.066 ± 0.005 µM
[5]; MDL50/IC50
  Selectivity index HepG2: 1038
[5]; human, 24 h
  MDL50 HepG2: 270 ± 10 µM
[6]; W2, dose that inhibits 50% of blood parasites growth, three or four experiments, read-out: IC50 Hypoxanthine, W2 (CQ resistant)
  IC50: 0.32 ± 0.07 µM
Hemozoin formation
  Inhibition of hemozoin formation in vitro: more evident with MAQ than with BAQ or CQ

## CCN(CC)CCCC(C)Nc1ccnc2cc(Cl)ccc12 (stereo not shown) [CQ, Chloroquine]
[2]; W2, read-out: IC50 HRPII, W2 (CQ resistant)
  IC50: 0.12 µM
[3]; 3D7, read-out: IC50 HRPII, 3D7 (CQ sensitive)
  IC50: 0.0069 ± 0.0009 µM
P. berghei, NK65 strain; 20 mg/kg daily
  Time of survival: >30 days
  Percent reduction of parasitemia, day 5: 100%
  Percent reduction of parasitemia, day 8: 100%
  Percent reduction of parasitemia, day 10: 100%
P. berghei, NK65 strain; CQ 20 mg/kg, day not given
  Suppression of parasitemia: 100%
[4]; 3D7, read-out: IC50 Hypoxanthine, 3D7 (CQ sensitive)
  IC50: 0.0074 ± 0.0012 µM
[6]; W2, read-out: IC50 Hypoxanthine, W2 (CQ resistant)
  IC50: 0.18 µM
